Article PMC11259696, “Small molecule MarR modulators potentiate metronidazole antibiotic activity in aerobic E. coli by inducing activation by the nitroreductase NfsA” (The Journal of Biological Chemistry, 2024)
Converted amounts (≈) assume the structure as drawn.

How the values were obtained:
MarR = biological target: T1, MarR (Escherichia coli, UniProt P27245); assay: thermal shift assay with Kd (ΔTm […] °C); EMSA release of marO DNA (EC50 […]); format: binding
T1 construct: recombinant His-tagged MarR (pET15b, gene from BW25113)

E. coli ΔtolC = system: T2, E. coli ΔtolC; assay: microbe, parasite or virus in culture; design: resazurin microtiter MIC90 in CAMHB, aerobic, 2-fold dilutions, fluorescence; turnover below 10% of control; conditions: Escherichia coli, 5 h; MIC90, antibiotic alone, aerobic; read-out: MIC90 against E. coli ∆tolC under aerobic conditions (µg/mL) / Alone
T2 construct: BW25113 ΔtolC efflux-deficient tolC deletion strain
Method: The MIC was determined using the colorimetric resazurin microtiter assay. Experiments were performed in 96-well plate format with a 100 μl final volume. Briefly, a suspension of an E. coli strain of interest was prepared in CAMHB (BD) at an A600 of 0.001. When required, boosters or arabinose were added to the suspension, and MTZ or NFZ antibiotics were tested in a concentration gradient through serial 2-fold dilutions. After 5 h of incubation at 37 °C, 10 μl of resazurin 12.5% was added to each well, and an additional incubation was carried out for 1.5 h. Fluorescence was measured using a Fluostar Optima BMG Labtech (Ex: 530 nm; Em: 590 nm). Values were converted to resazurin turnover based on minimal (no bacteria added to the medium) and maximal (no antibiotic added) fluorescence values. MIC90 values were determined when resaruzin turnover was ˂10% of control.

NfsA [1] = biological target: T3, NfsA (Escherichia coli, UniProt P17117); assay: EPR detection of MTZ radical anion formed by purified NfsA (1-electron reduction); NADPH consumption by UHPLC-MS; format: biochemical
T3 construct: recombinant His-tagged NfsA (pET28, gene from BW25113)
T3 sequence (P17117 1-240): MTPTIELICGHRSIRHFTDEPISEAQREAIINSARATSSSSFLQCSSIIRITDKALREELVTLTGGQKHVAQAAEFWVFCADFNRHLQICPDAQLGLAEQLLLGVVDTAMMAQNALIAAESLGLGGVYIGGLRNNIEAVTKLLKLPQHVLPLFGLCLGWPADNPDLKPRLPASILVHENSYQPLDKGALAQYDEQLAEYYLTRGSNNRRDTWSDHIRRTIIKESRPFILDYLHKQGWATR

NfsA [2] = biological target: T3, NfsA; assay: UHPLC-MS of NADPH consumption and NADP+ production by purified NfsA; format: biochemical
NfsA [3] = biological target: T3, NfsA; assay: UHPLC-MS turnover by purified NfsA with NADPH consumption and GSH trapping; format: biochemical
NfsA [4] = biological target: T3, NfsA; assay: reduction by purified recombinant NfsA (2-electron reduction); format: biochemical
[5] = system: MarR (His-tagged) (Escherichia coli BW25113); assay: EMSA; conditions: EMSA: His-MarR 5 uM preincubated with BDM76441 15 min 25 C, then 100 nM marO 15 min 25 C (10 ul); 6% DNA retardation gel, 0.5x TBE, 150 V 45 min; binding …

T1 sequence (P27245 whole entry): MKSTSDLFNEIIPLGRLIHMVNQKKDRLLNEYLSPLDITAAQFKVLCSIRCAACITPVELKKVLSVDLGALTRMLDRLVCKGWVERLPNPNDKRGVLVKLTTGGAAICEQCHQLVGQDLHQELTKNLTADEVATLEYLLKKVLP

Compound	MIC90 (E. coli ΔtolC) [µg/mL]	further results
O=C(Nc1ccc(I)cc1C(=O)O)c1cccs1 [BDM76441]	–	Kd (MarR): 9.8 ± 1.6 µM
O=C(Cn1ccnc1[N+](=O)[O-])NCc1ccccc1 [Benznidazole]	62.5 (≈ 240 µM)	–
Cc1ncc([N+](=O)[O-])n1C [Dimetridazole]	> 500	–
Cc1ncc([N+](=O)[O-])n1CCO [MTZ, metronidazole]	> 500	EPR detection of MTZ radical anion formed by purified NfsA (1-electron reduction) (NfsA [1]): these results confirmed the formation of MTZ radical anions by NfsA under aerobic conditions
NC(=O)C1=CN([C@@H]2O[C@H](COP(=O)(O)OP(=O)(O)OC[C@H]3O[C@@H](n4cnc5c(N)ncnc54)[C@H](OP(=O)(O)O)[C@@H]3O)[C@@H](O)[C@H]2O)C=CC1 [NADPH]	–	UHPLC-MS of NADPH consumption and NADP+ production by purified NfsA (NfsA [2]): rapid biotransformation of NFZ accompanied by a conversion of NADPH to NADP+ as measured by UHPLC-MS analysis
NC(=O)N/N=C/c1ccc([N+](=O)[O-])o1 [NFZ, nitrofurazone]	15.6 (≈ 78.7 µM)	UHPLC-MS turnover by purified NfsA with NADPH consumption and GSH trapping (NfsA [3]): with purified recombinant NfsA, we observed a rapid biotransformation of NFZ accompanied by a conversion of NADPH to NADP+
O=[N+]([O-])c1cncn1CCN1CCOCC1 [Nimorazole]	> 500	–
Cc1ncc([N+](=O)[O-])n1CC(O)CCl (centres unmarked) [Ornidazole]	> 500	–
Cc1ncc([N+](=O)[O-])n1CC(C)O (centres unmarked) [Secnidazole]	> 500	–
Cc1ncc([N+](=O)[O-])n1CCCO [Ternidazole]	> 500	–
CC1=CC(=O)c2ccccc2C1=O [menadione]	–	reduction by purified recombinant NfsA (2-electron reduction) (NfsA [4]): confirmed that NfsA could reduce both menadione (2-electron reduction) and ferrocyanide (1-electron reduction)
marO (marRAB promoter PCR fragment)	–	IC50 [5]: 38 µM
